Tested on: TFG-MET allograft tumors
Assay: RNA-sequencing, differential expression and GSEA of TFG-MET allograft tumors
Format: in vivo, mouse
Settings: CAP v Veh
Experimental: Error bars display standard error of mean, statistical significance was determined using t-test analysis. (****;p<0.0001, ***;p<0.001, **;p<0.01, *;p<0.05). […] Each dot represents an individual replicate. Error bars display standard error of the mean.
Each dot represents one gene.

Compound: CNC(=O)c1ccc(-c2cnc3ncc(Cc4ccc5ncccc5c4)n3n2)cc1F [Capmatinib]
- ES (GOMF_3_5_DNA_HELICASE_ACTIVITY): -0.6834
- NES (GOMF_3_5_DNA_HELICASE_ACTIVITY, padj 0.00671103): -1.906
- ES (GOMF_ACTIVATING_TRANSCRIPTION_FACTOR_BINDING): -0.4071
- NES (GOMF_ACTIVATING_TRANSCRIPTION_FACTOR_BINDING, padj 0.0419799): -1.5828
- ES (GOMF_ALPHA_ACTININ_BINDING): -0.5133
- NES (GOMF_ALPHA_ACTININ_BINDING, padj 0.0520078): -1.603
- ES (GOMF_AMYLOID_BETA_BINDING): 0.3131
- NES (GOMF_AMYLOID_BETA_BINDING, padj 0.0419799): 1.527
- ES (GOMF_ANTIOXIDANT_ACTIVITY): 0.3898
- NES (GOMF_ANTIOXIDANT_ACTIVITY, padj 0.0072907): 1.809
- ES (GOMF_ATPASE_COUPLED_ION_TRANSMEMBRANE_TRANSPORTER_ACTIVITY): 0.474
- NES (GOMF_ATPASE_COUPLED_ION_TRANSMEMBRANE_TRANSPORTER_ACTIVITY, padj 0.00463): 2.003
- ES (GOMF_BETA_2_MICROGLOBULIN_BINDING): 0.5632
- NES (GOMF_BETA_2_MICROGLOBULIN_BINDING, padj 0.0448774): 1.801
- ES (GOMF_CALCIUM_DEPENDENT_PROTEIN_BINDING): 0.337
- NES (GOMF_CALCIUM_DEPENDENT_PROTEIN_BINDING, padj 0.0607303): 1.56
- ES (GOMF_CARBOHYDRATE_BINDING): 0.2512
- NES (GOMF_CARBOHYDRATE_BINDING, padj 0.0202682): 1.428
- ES (GOMF_CARBOXYLIC_ESTER_HYDROLASE_ACTIVITY): 0.3196
- NES (GOMF_CARBOXYLIC_ESTER_HYDROLASE_ACTIVITY, padj 0.00853155): 1.6126
- ES (GOMF_CATALYTIC_ACTIVITY_ACTING_ON_A_TRNA): -0.5808
- NES (GOMF_CATALYTIC_ACTIVITY_ACTING_ON_A_TRNA, padj 7.15005e-11): -2.431
- ES (GOMF_CATALYTIC_ACTIVITY_ACTING_ON_DNA): -0.5359
- NES (GOMF_CATALYTIC_ACTIVITY_ACTING_ON_DNA, padj 5.51748e-13): -2.374
- ES (GOMF_CATION_CATION_ANTIPORTER_ACTIVITY): 0.4863
- NES (GOMF_CATION_CATION_ANTIPORTER_ACTIVITY, padj 0.0546567): 1.7655
- ES (GOMF_CATION_TRANSMEMBRANE_TRANSPORTER_ACTIVITY): 0.1933
- NES (GOMF_CATION_TRANSMEMBRANE_TRANSPORTER_ACTIVITY, padj 0.0600708): 1.207
- ES (GOMF_COA_HYDROLASE_ACTIVITY): 0.52
- NES (GOMF_COA_HYDROLASE_ACTIVITY, padj 0.0696276): 1.759
- ES (GOMF_CORE_PROMOTER_SEQUENCE_SPECIFIC_DNA_BINDING): -0.4562
- NES (GOMF_CORE_PROMOTER_SEQUENCE_SPECIFIC_DNA_BINDING, padj 0.072132): -1.575
- ES (GOMF_CYTOKINE_BINDING): 0.2766
- NES (GOMF_CYTOKINE_BINDING, padj 0.0484841): 1.402
- ES (GOMF_CYTOKINE_RECEPTOR_ACTIVITY): 0.3569
- NES (GOMF_CYTOKINE_RECEPTOR_ACTIVITY, padj 0.00978552): 1.74
- ES (GOMF_DELAYED_RECTIFIER_POTASSIUM_CHANNEL_ACTIVITY): 0.4424
- NES (GOMF_DELAYED_RECTIFIER_POTASSIUM_CHANNEL_ACTIVITY, padj 0.0600708): 1.691
- ES (GOMF_DEMETHYLASE_ACTIVITY): -0.5386
- NES (GOMF_DEMETHYLASE_ACTIVITY, padj 0.0072907): -1.838
- ES (GOMF_DNA_BINDING_TRANSCRIPTION_ACTIVATOR_ACTIVITY): -0.3206
- NES (GOMF_DNA_BINDING_TRANSCRIPTION_ACTIVATOR_ACTIVITY, padj 0.00368803): -1.494
- ES (GOMF_DNA_BINDING_TRANSCRIPTION_REPRESSOR_ACTIVITY): -0.3134
- NES (GOMF_DNA_BINDING_TRANSCRIPTION_REPRESSOR_ACTIVITY, padj 0.0381242): -1.423
- ES (GOMF_DNA_HELICASE_ACTIVITY): -0.6746
- NES (GOMF_DNA_HELICASE_ACTIVITY, padj 6.80206e-12): -2.633
- ES (GOMF_DNA_POLYMERASE_ACTIVITY): -0.499
- NES (GOMF_DNA_POLYMERASE_ACTIVITY, padj 0.057276): -1.624
- ES (GOMF_DNA_POLYMERASE_BINDING): -0.6079
- NES (GOMF_DNA_POLYMERASE_BINDING, padj 0.0319688): -1.763
- ES (GOMF_DOUBLE_STRANDED_RNA_BINDING): -0.4239
- NES (GOMF_DOUBLE_STRANDED_RNA_BINDING, padj 0.0120781): -1.66
- ES (GOMF_ENDONUCLEASE_ACTIVITY): -0.4125
- NES (GOMF_ENDONUCLEASE_ACTIVITY, padj 0.00509455): -1.716
- ES (GOMF_ENDONUCLEASE_ACTIVITY_ACTIVE_WITH_EITHER_RIBO_OR_DEOXYRIBONUCLEIC_ACIDS_AND_PRODUCING_5_PHOSPHOMONOESTERS): -0.5195
- NES (GOMF_ENDONUCLEASE_ACTIVITY_ACTIVE_WITH_EITHER_RIBO_OR_DEOXYRIBONUCLEIC_ACIDS_AND_PRODUCING_5_PHOSPHOMONOESTERS, padj 0.00950889): -1.794
- ES (GOMF_ENDOPEPTIDASE_REGULATOR_ACTIVITY): 0.2991
- NES (GOMF_ENDOPEPTIDASE_REGULATOR_ACTIVITY, padj 0.0132396): 1.521
- ES (GOMF_ENDORIBONUCLEASE_ACTIVITY): -0.4748
- NES (GOMF_ENDORIBONUCLEASE_ACTIVITY, padj 0.00565255): -1.786
- ES (GOMF_ENDORIBONUCLEASE_ACTIVITY_PRODUCING_5_PHOSPHOMONOESTERS): -0.5711
- NES (GOMF_ENDORIBONUCLEASE_ACTIVITY_PRODUCING_5_PHOSPHOMONOESTERS, padj 0.0162496): -1.81
- ES (GOMF_FATTY_ACID_BINDING): 0.4525
- NES (GOMF_FATTY_ACID_BINDING, padj 0.0492693): 1.741
- NES (GOMF_FOUR_WAY_JUNCTION_DNA_BINDING, padj 0.0177962): -1.783
- NES (GOMF_GLUTATHIONE_PEROXIDASE_ACTIVITY, padj 0.00790825): 2.092
- ES (GOMF_GLYCOLIPID_BINDING): 0.506
- NES (GOMF_GLYCOLIPID_BINDING, padj 0.0202682): 1.835
- ES (GOMF_GUANYL_NUCLEOTIDE_BINDING): -0.2896
- NES (GOMF_GUANYL_NUCLEOTIDE_BINDING, padj 0.0419799): -1.351
- ES (GOMF_HEAT_SHOCK_PROTEIN_BINDING): -0.3614
- NES (GOMF_HEAT_SHOCK_PROTEIN_BINDING, padj 0.0624118): -1.511
- ES (GOMF_HEME_COPPER_TERMINAL_OXIDASE_ACTIVITY): 0.566
- NES (GOMF_HEME_COPPER_TERMINAL_OXIDASE_ACTIVITY, padj 0.00343436): 2.052
- ES (GOMF_HISTONE_DEACETYLASE_BINDING): -0.365
- NES (GOMF_HISTONE_DEACETYLASE_BINDING, padj 0.0452435): -1.507
- ES (GOMF_HYDROLASE_ACTIVITY_ACTING_ON_ACID_ANHYDRIDES): -0.3454
- ES (GOMF_HYDROLASE_ACTIVITY_ACTING_ON_CARBON_NITROGEN_BUT_NOT_PEPTIDE_BONDS_IN_CYCLIC_AMIDINES): -0.5898
- NES (GOMF_HYDROLASE_ACTIVITY_ACTING_ON_CARBON_NITROGEN_BUT_NOT_PEPTIDE_BONDS_IN_CYCLIC_AMIDINES, padj 0.00629559): -1.842
- ES (GOMF_ION_TRANSMEMBRANE_TRANSPORTER_ACTIVITY): 0.1805
- NES (GOMF_ION_TRANSMEMBRANE_TRANSPORTER_ACTIVITY, padj 0.0667134): 1.183
- ES (GOMF_ISOMERASE_ACTIVITY): -0.3436
- NES (GOMF_ISOMERASE_ACTIVITY, padj 0.0410059): -1.472
- ES (GOMF_KINASE_BINDING): -0.2712
- NES (GOMF_KINASE_BINDING, padj 0.019253): -1.314
- ES (GOMF_KINASE_INHIBITOR_ACTIVITY): -0.4003
- ES (GOMF_KINASE_REGULATOR_ACTIVITY): -0.3132
- NES (GOMF_KINASE_REGULATOR_ACTIVITY, padj 0.0543588): -1.396
- ES (GOMF_LIGASE_ACTIVITY_FORMING_CARBON_NITROGEN_BONDS): -0.4994
- NES (GOMF_LIGASE_ACTIVITY_FORMING_CARBON_NITROGEN_BONDS, padj 0.0116225): -1.777
- ES (GOMF_LYSINE_ACETYLATED_HISTONE_BINDING): -0.5519
- NES (GOMF_LYSINE_ACETYLATED_HISTONE_BINDING, padj 0.0564834): -1.63
- ES (GOMF_LYSOPHOSPHOLIPASE_ACTIVITY): 0.4699
- NES (GOMF_LYSOPHOSPHOLIPASE_ACTIVITY, padj 0.0722653): 1.706
- ES (GOMF_MAGNESIUM_ION_BINDING): -0.3426
- NES (GOMF_MAGNESIUM_ION_BINDING, padj 0.0134631): -1.518
- NES (GOMF_MAP_KINASE_KINASE_KINASE_ACTIVITY, padj 0.0759934): -1.58
- ES (GOMF_METALLOENDOPEPTIDASE_ACTIVITY): -0.4444
- NES (GOMF_METALLOENDOPEPTIDASE_ACTIVITY, padj 0.00334688): -1.785
- ES (GOMF_METALLOPEPTIDASE_ACTIVITY): -0.3671
- NES (GOMF_METALLOPEPTIDASE_ACTIVITY, padj 0.0120781): -1.581
- ES (GOMF_METHYL_CPG_BINDING): -0.6439

— paper PMC11157767 (Molecular Cancer, 2024)
